Data from patent publication US11254651B2, “Histone methyltransferase inhibitors” (GLOBAL BLOOD THERAPEUTICS, INC., priority 2016, dated 2022).
Counter-ions that a name gives are not always drawn.

Target: T1, G9a (Homo sapiens, UniProt Q96KQ7)
T1 sequence (Q96KQ7 1-1210): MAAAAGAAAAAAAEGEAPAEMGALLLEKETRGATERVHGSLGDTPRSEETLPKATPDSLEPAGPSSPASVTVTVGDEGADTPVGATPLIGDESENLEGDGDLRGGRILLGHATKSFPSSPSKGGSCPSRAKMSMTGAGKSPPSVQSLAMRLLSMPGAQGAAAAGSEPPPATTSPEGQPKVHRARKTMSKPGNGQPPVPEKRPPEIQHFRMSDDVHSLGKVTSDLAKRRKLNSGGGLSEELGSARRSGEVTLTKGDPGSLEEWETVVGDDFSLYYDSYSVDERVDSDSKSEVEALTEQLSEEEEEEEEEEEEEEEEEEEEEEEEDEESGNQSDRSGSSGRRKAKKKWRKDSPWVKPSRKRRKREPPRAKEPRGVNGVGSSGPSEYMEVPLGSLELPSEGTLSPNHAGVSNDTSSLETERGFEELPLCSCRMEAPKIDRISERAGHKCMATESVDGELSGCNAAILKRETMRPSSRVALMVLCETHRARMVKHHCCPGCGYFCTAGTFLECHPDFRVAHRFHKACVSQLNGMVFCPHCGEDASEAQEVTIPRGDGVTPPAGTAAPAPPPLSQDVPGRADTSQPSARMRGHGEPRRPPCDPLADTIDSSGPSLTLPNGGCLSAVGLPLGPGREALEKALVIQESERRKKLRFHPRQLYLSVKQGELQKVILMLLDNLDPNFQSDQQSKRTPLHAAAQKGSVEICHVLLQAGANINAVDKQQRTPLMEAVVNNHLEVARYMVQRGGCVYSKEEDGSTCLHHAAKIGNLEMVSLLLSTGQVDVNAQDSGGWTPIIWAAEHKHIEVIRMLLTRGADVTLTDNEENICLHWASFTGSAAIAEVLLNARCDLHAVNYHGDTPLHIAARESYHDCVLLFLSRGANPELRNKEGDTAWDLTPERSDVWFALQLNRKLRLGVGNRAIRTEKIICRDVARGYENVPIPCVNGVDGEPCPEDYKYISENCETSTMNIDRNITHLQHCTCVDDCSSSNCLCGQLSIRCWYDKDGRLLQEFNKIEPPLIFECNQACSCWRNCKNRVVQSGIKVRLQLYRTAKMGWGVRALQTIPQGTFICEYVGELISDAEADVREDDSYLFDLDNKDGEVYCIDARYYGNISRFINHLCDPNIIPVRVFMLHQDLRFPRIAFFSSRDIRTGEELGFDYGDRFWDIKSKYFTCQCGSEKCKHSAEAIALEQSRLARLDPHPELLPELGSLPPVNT
Assay: G9a AlphaLISA enzymatic activity assay
Format: biochemical
Details: 0.15 nM G9a, 15 uM S-adenosyl-methionine, 100 nM biotinylated histone 3 peptide (1-21), 1 hour room temperature
Source text: The G9a AlphaLISA assay was used to detect the methyl modifications of a biotinylated histone H3 peptide by the compounds. These modifications are done by the histone methyl transferase activity of the G9a enzyme. The assay consists of reading a chemiluminescent signal at 615 nm; this signal is generated by a laser excitation at 680 nm that transfers a reactive singlet oxygen between the donor beads and acceptor beads. Donor beads are streptavidin conjugated and bind to the biotin on the peptide. Acceptor beads are conjugated with an antibody that recognizes the specific G9a methyl mark on the peptide. If there is a methyl mark on the peptide, the acceptor beads will bind to the peptide. Upon binding, the acceptor beads will be in close proximity (<200 nm) of the donor beads and when the donor beads are excited, the transfer of the oxygen can occur and a strong signal will be generated. If there is no methyl mark, the interaction between beads will not occur and signal will be at background levels.
For the assay, the following buffer was used to set up reactions: 50 mM Tris-HCl pH9, 50 mM NaCl, 0.01% Tween-20 and 1 mM DTT (added fresh prior to starting the reactions). The assay is set up by adding a final concentration of 0.15 nM G9a, 15 uM S-adenosyl-methionine and, 100 nM biotinylated histone 3 peptide (1-21). The reaction is incubated at room temperature for 1 hour, and subsequently quenched by the addition of the acceptor beads (anti-H3k9me2 AlphaLISA acceptor beads, PerkinElmer #AL117) at a final concentration of 20 ug/mL. The acceptor beads are incubated for 1 hour. After 1 hour, the donor beads are added at a final concentration of 20 ug/mL (Alpha Streptavidin donor beads, PerkinElmer #6760002). Donor beads are incubated for 0.5 hours. Both donor and acceptor beads are resuspended in AlphaLISA 5X Epigenetics Buffer 1 Kit (PerkinElmer #AL008) prior to addition to the reaction. All manipulations and incubations with the donor and acceptor beads are done in subdued light. Signal is detected in an EnVision plate reader in Alpha mode (see ACS Med Chem Lett. 2014 Jan. 2; 5(2):205-9. doi: 10.1021/m1400496h. eCollection 2014. Discovery and development of potent and selective inhibitors of histone methyltransferase g9a.)
Percent inhibition was calculated for each compound dilution and the concentration that produced 50% inhibition was calculated. This value is presented as the IC50.

Compound | IC50
CCOc1c2ccccc2nc2cc(OCCCN3CCCC3)c(OC)cc12 [Entry 7, 9-ethoxy-2-methoxy-3-[3-(pyrrolidin-1-yl)propoxy]acridine formate] | 1400 nM
COc1cc2c(NCc3ccccc3)c3c(nc2cc1OCCCN1CCCC1)CCC3 [Entry 46, N-benzyl-7-methoxy-6-[3-(pyrrolidin-1-yl)propoxy]-1H,2H,3H-cyclopenta[b]quinolin-9-amine formate] | 36 nM
COC(=O)CNc1c2ccccc2nc2cc(OCCCN3CCCC3)c(OC)cc12 [Entry 105, methyl 2-({2-methoxy-3-[3-(pyrrolidin-1-yl)propoxy]acridin-9-yl}amino)acetate formate] | 20.6 nM
COc1cc2c(NCC(C)(C)O)c3cccnc3nc2cc1OCCCN1CCCC1 [Entry 123, 1-({7-methoxy-8-[3-(pyrrolidin-1-yl)propoxy]benzo[b]1,8-naphthyridin-5-yl}amino)-2-methylpropan-2-ol formate] | 251 nM
COc1cc2c(NC3CCOCC3)c3ccccc3nc2cc1OCCCN1CCCC1 [Entry 3, 2-methoxy-N-(oxan-4-yl)-3-[3-(pyrrolidin-1-yl)propoxy]-acridin-9-amine trifluoroacetate] | 4.4 nM
COc1cc2c(NC(C)C)c3cccc(F)c3nc2cc1OCCCN1CCCC1 [Entry 120, 5-fluoro-2-methoxy-N-(propan-2-yl)-3-[3-(pyrrolidin-1-yl)propoxy]acridin-9-amine formate] | 62 nM
CCN(CC)CCCOc1cc2nc3ccccc3c(NC)c2cc1OC [Entry 14, 3-[3-(diethylamino)propoxy]-2-methoxy-N-methylacridin-9-amine trifluoroacetate] | 76 nM
COc1cc2c(NCc3ccccn3)c3c(nc2cc1OCCCN1CCCC1)CCC3 [Entry 54, 7-methoxy-N-[pyridin-2-yl)methyl]-6-[3-(pyrrolidin-1-yl)propoxy]-1H,2H,3H-cyclopenta[b]quinolin-9-amine formate] | 60.1 nM
COc1cc2c(NC3CCC(C)(O)CC3)c3ccccc3nc2cc1OCCCN1CCCC1 [Entry 99, (1R,4R)-4-({2-methoxy-3-[3-(pyrrolidin-1-yl)propoxy]acridin-9-yl}amino)-1-methylcyclohexan-1-ol trifluoroacetate] | 17 nM
2-ethoxy-N-methyl-3-[3-(pyrrolidin-1-yl)propoxy]acridin-9-amine formate and 3-ethoxy-N-methyl-2-[3-(pyrrolidin-1-yl)propoxy]acridin-9-amine formate (1:1) [Entry 118] | 75.5 nM
CNc1c2ccccc2nc2cc(OCCCN3CCCC3)ccc12 [Entry 10, N-methyl-3-[3-(pyrrolidin-1-yl)propoxy]acridin-9-amine formate] | 56.7 nM
COc1cc2c(NCC(F)(F)F)c3c(nc2cc1OCCCN1CCCC1)CCC3 [Entry 50, 7-methoxy-6-[3-(pyrrolidin-1-yl)propoxy]-N-(2,2,2-trifluoroethyl)-1H,2H,3H-cyclopenta[b]quinolin-9-amine trifluoroacetate] | 26 nM

The remaining compounds from weak to strong by IC50, led by results:

IC50 | Compound
1230 nM | CNc1c2ccccc2nc2cc(OCCCN3CCCC3)c(C)cc12 [Entry 11, N,2-dimethyl-3-[3-(pyrrolidin-1-yl)propoxy]acridin-9-amine formate]
510 nM | COc1cc2cc3c(nc2cc1OCCCN1CCCC1)CCCC3 [Entry 17, 7-methoxy-6-[3-(pyrrolidin-1-yl)propoxy]-1,2,3,4-tetrahydroacridine formate]
215 nM | COc1ccc2nc3cc(OCCCN4CCCC4)c(OC)cc3c(NC3CCOCC3)c2c1 [Entry 115, 2,7-dimethoxy-N-(oxan-4-yl)-3-[3-(pyrrolidin-1-yl)propoxy]acridin-9-amine trifluoroacetate]
139 nM | CNc1c2ccccc2nc2cc(OCCCN3CCC(F)C3)c(OC)cc12 (centres unmarked) [Entry 117, 3-[3-(3-fluoropyrrolidin-1-yl)propoxy]-2-methoxy-N-methylacridin-9-amine formate]
64.2 nM | COc1cc2c(NC(C)C)c3cnccc3nc2cc1OCCCN1CCCC1 [Entry 121, 8-methoxy-N-(propan-2-yl)-7-[3-(pyrrolidin-1-yl)propoxy]benzo[b]1,6-naphthyridin-10-amine formate]
21.6 nM | COc1cc2c(NC3CC(C)OC(C)C3)c3c(nc2cc1OCCCN1CCCC1)CCC3 (centres unmarked) [Entry 53, N-(2,6-dimethyloxan-4-yl)-7-methoxy-6-[3-(pyrrolidin-1-yl)propoxy]-1H,2H,3H-cyclopenta[b]quinolin-9-amine formate]
20 nM | COc1cc2c(NCC3COC3)c3c(nc2cc1OCCCN1CCCC1)CCC3 [Entry 39, 7-methoxy-N-[(oxetan-3-yl)methyl]-6-[3-(pyrrolidin-1-yl)propoxy]-1H,2H,3H-cyclopenta[b]quinolin-9-amine formate]
16 nM | COCCNc1c2c(nc3cc(OCCCN4CCCC4)c(OC)cc13)CCC2 [Entry 38, 7-methoxy-N-(2-methoxyethyl)-6-[3-(pyrrolidin-1-yl)propoxy]-1H,2H,3H-cyclopenta[b]quinolin-9-amine formate]
14.6 nM | COc1cc2c(NC3CNC(=O)C3)c3c(nc2cc1OCCCN1CCCC1)CCC3 (centres unmarked) [Entry 60, 4-({7-methoxy-6-[3-(pyrrolidin-1-yl)propoxy]-1H,2H,3H-cyclopenta[b]quinolin-9-yl}amino)pyrrolidin-2-one trifluoroacetate]
11 nM | COc1cc2c(NC3CCN(C(C)C)CC3)c3c(nc2cc1OCCCN1CCCC1)CCCC3 [Entry 16, 7-methoxy-N-[1-(propan-2-yl)piperidin-4-yl]-6-[3-(pyrrolidin-1-yl)propoxy]-1,2,3,4-tetrahydroacridin-9-amine trifluoroacetate]
6.8 nM | COc1cc2c(NCCC#N)c3ccccc3nc2cc1OCCCN1CCCC1 [Entry 98, 3-({2-methoxy-3-[3-(pyrrolidin-1-yl)propoxy]acridin-9-yl}amino)propanenitrile trifluoroacetate]
